Among the test systems are SR leukemia; MCF7 breast; HOP-92 NSCLC; HS 578T breast; TK-10 renal; K-562 leukemia; MOLT-4 leukemia; EKVX NSCLC; HCC-2998 colon; U251 CNS; MALME-3M melanoma; DU-145 prostate; SN12C renal; SW-620 colon; SK-OV-3 ovarian.
Common to all, as to test: NCI-60 cell line screen, 48 h

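1) Cells in 96-well plates. 2) Compound, 48 h, 5 concentrations. 3) Linear interpolation between surrounding doses. 4) Unreached endpoint = highest concentration. TGI marks complete inhibition of growth.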 Bounds are passed on as bounds.

`CCc1n[nH]c(=O)n1CC`: the TGI with SR leukemia, in the test on MCF7 breast, in the test on HOP-92 NSCLC, with HS 578T breast, with TK-10 renal and in the test on K-562 leukemia was above 100 µM throughout. The TGI in the test on MOLT-4 leukemia, in the test with EKVX NSCLC, in the test with HCC-2998 colon, in the test on U251 CNS, in the test with MALME-3M melanoma and in the test with DU-145 prostate was above 100 µM in each case. The TGI in the test with SN12C renal, with SW-620 colon and in the test on SK-OV-3 ovarian was above 100 µM each time.
Consider `COC(=O)[C@@H]1C[C@@H](O)CN1C(=O)c1ccc([N+](=O)[O-])cc1[N+](=O)[O-]`, for which the TGI in the test on SR leukemia, in the test on MCF7 breast, in the test with HOP-92 NSCLC, in the test on HS 578T breast, with TK-10 renal and in the test with K-562 leukemia was above 100 µM each time. Moreover, the TGI in the test on MOLT-4 leukemia, with EKVX NSCLC, in the test with HCC-2998 colon, in the test on U251 CNS, in the test on DU-145 prostate and in the test on SN12C renal was above 100 µM throughout. For the same compound, the TGI with SW-620 colon and in the test with SK-OV-3 ovarian was above 100 µM throughout.
Consider `Cc1c(C(=O)c2ccccc2)[n+](=O)c2cc(Cl)c(Cl)cc2n1[O-]`, for which the TGI in the test on SR leukemia amounted to 3.32 µM; in the test on MCF7 breast, 26.6 µM; with HOP-92 NSCLC, 15.2 µM; with HS 578T breast, 31.2 µM; with TK-10 renal, 23.9 µM; in the test on K-562 leukemia, 17.8 µM. The TGI in the test with MOLT-4 leukemia came to 12.2 µM; in the test on EKVX NSCLC, 26.3 µM; in the test on HCC-2998 colon, 2.9 µM; with U251 CNS it was 29.9 µM; in the test with DU-145 prostate it was 31.5 µM; with SN12C renal it was 30.5 µM. Further, in the test with SK-OV-3 ovarian, the TGI was determined as 41.4 µM.
In the case of `NS(=O)(=O)c1nnc(NS(=O)(=O)c2ccccc2[N+](=O)[O-])s1`, the TGI with SR leukemia, with MCF7 breast, in the test on HOP-92 NSCLC, with HS 578T breast, in the test on TK-10 renal and in the test with K-562 leukemia was above 100 µM each time. The TGI with MOLT-4 leukemia, in the test on EKVX NSCLC, in the test with HCC-2998 colon, in the test with U251 CNS, with MALME-3M melanoma and in the test on DU-145 prostate was above 100 µM throughout. Besides, the TGI with SW-620 colon and in the test on SK-OV-3 ovarian was above 100 µM each time.
Turning to `O=C1CSC(c2ccccc2O)N1c1ccc2c(c1)Oc1c(Cl)c3c(c(Cl)c1=N2)Oc1cc(N2C(=O)CSC2c2ccccc2O)ccc1N=3` (configuration not stated), the TGI with SR leukemia was above 100 µM; with MCF7 breast, above 100 µM; in the test with HOP-92 NSCLC it was 39.9 µM; in the test with HS 578T breast, above 100 µM; in the test with TK-10 renal, above 100 µM; in the test on K-562 leukemia, above 100 µM. Further, the TGI is 46.4 µM with MOLT-4 leukemia; above 100 µM with EKVX NSCLC; above 100 µM in the test on HCC-2998 colon; 65 µM with U251 CNS; above 100 µM in the test with DU-145 prostate; above 100 µM in the test on SW-620 colon. Moreover, in the test with SK-OV-3 ovarian, the TGI turned out to be 71.3 µM.
Turning to `COc1ccc(N2C(=O)C(Cl)C2c2cc3cc(Br)ccc3nc2Cl)cc1` (configuration not stated), the TGI is 6.82 µM in the test with SR leukemia; 13.5 µM with MCF7 breast; 18.3 µM in the test with HOP-92 NSCLC; above 25 µM with HS 578T breast; 15.5 µM in the test on TK-10 renal; above 25 µM with K-562 leukemia. Further, the TGI is 11.9 µM in the test with MOLT-4 leukemia; 9.86 µM in the test on EKVX NSCLC; 7.52 µM with HCC-2998 colon; 10.1 µM in the test on MALME-3M melanoma; 21.2 µM with DU-145 prostate; 12.3 µM in the test with SN12C renal. The TGI with SW-620 colon was 16.2 µM; in the test on SK-OV-3 ovarian, above 25 µM.
As for `O[C@@]1(C#Cc2ccc3c(c2)OCO3)CCC[C@H]1NCc1ccccc1`, the TGI amounted to 50.7 µM in the test with SR leukemia; 55.3 µM with MCF7 breast; 38 µM in the test with HOP-92 NSCLC; 50.8 µM with HS 578T breast; 70.6 µM in the test on TK-10 renal; 41.5 µM in the test with K-562 leukemia. Moreover, the TGI with MOLT-4 leukemia is 45.1 µM; in the test with EKVX NSCLC, above 100 µM; in the test on HCC-2998 colon it was 32.2 µM; with U251 CNS, 59.6 µM; in the test on MALME-3M melanoma it was 29.6 µM; with DU-145 prostate it was above 100 µM. The TGI with SW-620 colon and with SK-OV-3 ovarian was above 100 µM in each case.
Consider `O=c1[nH]c(=O)c2c([nH]1)[nH]c1ccc(Br)cc12`, for which the TGI in the test with SR leukemia, in the test on MCF7 breast, with HOP-92 NSCLC, in the test on HS 578T breast, with TK-10 renal and in the test on EKVX NSCLC was above 100 µM in each case. Also, the TGI is above 100 µM with HCC-2998 colon; above 100 µM in the test with MALME-3M melanoma; above 100 µM in the test on DU-145 prostate; above 100 µM with SN12C renal; above 100 µM with SW-620 colon; 56.4 µM in the test with SK-OV-3 ovarian.
Turning to `C=C1N(S(=O)(=O)c2ccc(C)cc2)C(=O)OCC12CCCC2`, the TGI in the test with SR leukemia, in the test with MCF7 breast, with HOP-92 NSCLC, in the test on HS 578T breast, in the test with TK-10 renal and in the test with K-562 leukemia was above 100 µM in each case. For the same compound, the TGI with MOLT-4 leukemia, with EKVX NSCLC, in the test with HCC-2998 colon, in the test on U251 CNS, in the test on MALME-3M melanoma and in the test with DU-145 prostate was above 100 µM each time. In addition, the TGI in the test on SW-620 colon and in the test on SK-OV-3 ovarian was above 100 µM in each case.
Take `CCOC(=O)c1ncn(CCc2ccc(Cl)cc2)c1C`: the TGI in the test on SR leukemia, in the test with MCF7 breast, with HOP-92 NSCLC, in the test with HS 578T breast, with TK-10 renal and in the test with K-562 leukemia was above 100 µM in each case. The TGI in the test with MOLT-4 leukemia, in the test on EKVX NSCLC, in the test with HCC-2998 colon, in the test on U251 CNS, in the test with MALME-3M melanoma and with DU-145 prostate was above 100 µM each time. The TGI in the test with SN12C renal and in the test with SW-620 colon was above 100 µM each time.

These data come from PubChem BioAssay (NCI).
